BigSolDB 2.1

Brc1c(Br)c(Br)c(Oc2c(Br)c(Br)c(Br)c(Br)c2Br)c(Br)c1Br
solubility (mole fraction)
Conditions | in THF | in acetone | in ethyl acetate | in limonene | in toluene
283 K | 0.00449 | 4.4e-05 | 0.000133 | 0.00162 | 0.00274
293 K | 0.00524 | 6e-05 | 0.000173 | 0.00242 | 0.00362
303 K | 0.00607 | 9.1e-05 | 0.000252 | 0.00282 | 0.0052
313 K | 0.00695 | 0.000119 | 0.000346 | 0.00397 | 0.00651
323 K | 0.0085 | 0.000145 | 0.000455 | 0.00485 | 0.00771
